Values after ≈ are worked out from the molar mass of the structure shown. Where two headings read alike, the source gives them in different places.
Columns and labels:
[1] = molecular target: Isoleucyl-tRNA synthetase (IleRS) (Escherichia coli (strain K12), UniProt P00956); experiment: Isoleucyl-tRNA synthetase enzyme inhibition (AMP-Glo; single point % inhibition at 100 μM and IC50); assay type: biochemical; settings: E. coli IleRS; read-out: Enzyme Inhibition - IC50, E. coli IleRS
Text: Study 1—Enzyme Inhibition
The aminoacylation reaction catalyzed by aminoacyl-tRNA synthetases (aaRS) takes place in two steps. In the first step, aaRS activates its cognate amino acid with ATP; and in the second step the activated amino acid is loaded to its corresponding tRNA. This reaction can be summarized as follows: aaRS+aa+ATP=aaRS-aa-AMP+PPi aaRS-aa-AMP+tRNA=aa-tRNA+AMP+aaRS […]
wherein: aaRS, aminoacyl-tRNA synthetase; aa, amino acid; aaRS-aa-AMP, enzyme-bound to aminoacyl-adenylate; AMP, adenosine monophosphate; aa-tRNA, aminoacyl-tRNA, PPi, inorganic pyrophosphate.
Isoleucyl-tRNA Synthetase a. Single Point Percentage Inhibition
The activity of the pathogenic aaRSs was monitored by measuring AMP production using the commercial kit AMP-Glo (Promega, Madison, USA).
Ligand stock solutions were prepared in 100% DMSO at 10 mM concentration. An assay buffer consisting of 100 mM Tris HCl pH 7.6, 40 mM MgCl, 20 mM KCl and 150 mM NaCl was prepared in dH2O. An enzyme solution containing 51.77 μM IleRS was prepared in assay buffer to provide 30 nM final assay concentration and 75 nM reservoir concentration for a 1:2.5 dilution in the assay. A substrate solution was also prepared in assay buffer with 50 mM L-isoleucine, 10 mM ATP and 100 mg/mL tRNA. A final assay concentration of 500 μM L-isoleucine, 5 μM ATP and 1 mg/mL tRNA and reservoir concentration of 833.33 μM L-isoleucine, 8.33 μM ATP and 1.67 mg/mL tRNA was used for a 1:1.66 dilution in assay.
Enzyme percentage inhibition values were recorded in triplicate at a single point concentration of 100 μM.
Using the same enzymatic assay in a 384-well plate format, ten point concentration response curves were generated for each compound using a top concentration of 100 μM. The known inhibitor, IleAMS was used as a positive control for the IleRS assay. 100% DMSO was used as a negative control. The IC50 was calculated based on non-linear regression analysis.

[2] = tested on: bacteria (ATCC reference strains); experiment: Antibacterial activity, MIC by broth micro-dilution (CLSI)
[3] = molecular target: Leucyl-tRNA synthetase (LeuRS) (Escherichia coli (strain K12), UniProt P07813); experiment: Leucyl-tRNA synthetase enzyme inhibition (AMP-Glo; single point % inhibition at 100 μM and IC50); assay type: biochemical
Chain of Leucyl-tRNA synthetase (LeuRS) (P07813 whole entry, looked up): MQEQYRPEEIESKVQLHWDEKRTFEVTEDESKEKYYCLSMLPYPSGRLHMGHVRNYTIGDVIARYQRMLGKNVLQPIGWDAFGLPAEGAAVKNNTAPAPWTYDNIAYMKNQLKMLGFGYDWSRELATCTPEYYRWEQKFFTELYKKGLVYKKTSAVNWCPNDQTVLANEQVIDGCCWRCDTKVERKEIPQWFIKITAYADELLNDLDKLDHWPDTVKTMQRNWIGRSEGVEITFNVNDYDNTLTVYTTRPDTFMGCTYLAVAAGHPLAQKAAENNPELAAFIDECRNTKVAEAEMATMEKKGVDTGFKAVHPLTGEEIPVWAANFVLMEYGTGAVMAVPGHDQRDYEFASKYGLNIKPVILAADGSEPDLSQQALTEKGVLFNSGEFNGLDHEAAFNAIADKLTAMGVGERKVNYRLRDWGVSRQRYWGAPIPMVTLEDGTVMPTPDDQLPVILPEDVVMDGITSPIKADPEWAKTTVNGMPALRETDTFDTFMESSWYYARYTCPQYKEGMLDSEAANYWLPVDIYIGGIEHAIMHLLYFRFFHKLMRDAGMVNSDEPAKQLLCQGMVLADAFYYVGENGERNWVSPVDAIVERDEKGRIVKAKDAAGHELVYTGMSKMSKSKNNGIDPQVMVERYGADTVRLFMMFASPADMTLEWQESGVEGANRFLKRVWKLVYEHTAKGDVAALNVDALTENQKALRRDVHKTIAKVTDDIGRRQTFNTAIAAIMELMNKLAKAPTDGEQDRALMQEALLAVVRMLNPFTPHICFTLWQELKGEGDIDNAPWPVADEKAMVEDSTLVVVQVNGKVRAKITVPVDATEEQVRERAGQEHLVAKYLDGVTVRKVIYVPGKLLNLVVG

[4] = Human cell viability / cytotoxicity (CellTiter-Glo, 24 hours); assay type: cell-based; settings: human, HepG2 cells (ATCC HB-8065); HepG2 ATCC HB-8065, 24 hours; read-out: Cytotoxicity in HepG2 ATCC HB-8065 Cell Line, IC50
Experimental: Study 3—Human Cell Viability
Compounds were assessed for potential non-specific cytotoxic effects against a human hepatic cell line (HepG2 ATCC HB-8065). 96-well plates were seeded with HepG2 cells in concentration of 15,000 cells per well in 100 μL of MEM growth media completed with 1% NEAA and 1% sodium pyruvate. Border wells were filled with 100 μL of sterile PBS. Two days upon cells incubation, the compounds were added. Compound dilutions were prepared in 96-well V-bottom plate in pure DMSO. Growth media from 5 plates were aspirated and replaced with 98.7 μL of fresh growth media. 1.28 μL of compounds prepared in V-bottom plates were transferred with multichannel pipette into test plates (78.1× dilution). Final DMSO concentration was 1.28% per well. In control wells, 1.28 μL of DMSO was added in 98.7 μL of media. Compounds were tested in duplicates. Cells were incubated with compounds for 24 hours when cell viability was assessed by measuring ATP levels. ATP levels were measured by adding 50 μL of CellTiter-Glo reagent to each well and after 5 minutes of incubation luminescence was measured with SpectraMax i3. The potential effect of tested compounds on cell viability was determined by comparing the signal obtained in presence of different concentrations of the compounds with those obtained in the presence of DMSO only. The potential effects were then calculated and presented as IC50 values (μg/mL).

[5] = Escherichia coli, ATCC25922, read-out: Antibacterial Activity (MIC), A = E. coli ATCC 25922
[6] = Acinetobacter baumannii, read-out: Antibacterial Activity (MIC), E = A. baumannii B1931
[7] = Escherichia coli, BAA2469, read-out: Antibacterial Activity (MIC), G = E. coli BAA-2469
[8] = Haemophilus influenzae, ATCC49247, read-out: Antibacterial Activity (MIC), F = H. influenzae ATCC 49247
[9] = Klebsiella pneumoniae, ATCC700603, read-out: Antibacterial Activity (MIC), C = K. pneumoniae ATCC 700603
[10] = Pseudomonas aeruginosa, ATCC27853, read-out: Antibacterial Activity (MIC), D = P. aeruginosa ATCC 27853
[11] = Enterobacter cloacae, read-out: Antibacterial Activity (MIC), B = Enterobacter cloacae B1966
[12] = E. coli LeuRS, read-out: Enzyme Inhibition - IC50, E. coli LeuRS

Chain of Isoleucyl-tRNA synthetase (IleRS) (P00956 whole entry, looked up): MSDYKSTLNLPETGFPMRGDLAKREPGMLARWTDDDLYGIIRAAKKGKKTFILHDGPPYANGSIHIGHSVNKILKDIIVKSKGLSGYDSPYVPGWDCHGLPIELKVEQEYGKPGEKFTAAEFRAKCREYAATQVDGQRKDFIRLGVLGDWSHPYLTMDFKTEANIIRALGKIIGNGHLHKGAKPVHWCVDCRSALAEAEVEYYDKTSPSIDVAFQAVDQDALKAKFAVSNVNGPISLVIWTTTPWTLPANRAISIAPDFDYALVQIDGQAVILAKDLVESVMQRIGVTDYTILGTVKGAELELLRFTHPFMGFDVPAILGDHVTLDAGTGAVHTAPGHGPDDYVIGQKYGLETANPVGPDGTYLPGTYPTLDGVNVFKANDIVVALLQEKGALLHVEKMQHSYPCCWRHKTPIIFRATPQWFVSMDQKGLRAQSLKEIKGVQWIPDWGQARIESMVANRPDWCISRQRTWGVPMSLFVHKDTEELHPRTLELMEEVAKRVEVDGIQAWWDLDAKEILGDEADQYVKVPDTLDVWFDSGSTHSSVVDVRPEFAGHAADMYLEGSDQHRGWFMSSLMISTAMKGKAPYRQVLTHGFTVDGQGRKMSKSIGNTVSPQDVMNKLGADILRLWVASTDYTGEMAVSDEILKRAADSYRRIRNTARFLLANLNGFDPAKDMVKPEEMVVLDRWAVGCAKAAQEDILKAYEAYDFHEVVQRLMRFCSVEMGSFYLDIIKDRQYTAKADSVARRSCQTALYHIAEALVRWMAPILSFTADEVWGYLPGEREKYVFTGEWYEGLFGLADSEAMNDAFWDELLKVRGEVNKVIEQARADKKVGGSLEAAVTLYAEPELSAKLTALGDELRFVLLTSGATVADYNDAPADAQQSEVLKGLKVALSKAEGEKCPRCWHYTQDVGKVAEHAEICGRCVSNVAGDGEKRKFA

Structure (SMILES) | IC50 [1] [nM] | MIC [2, 5] [µg/mL] | IC50 at 24 h [4] [µg/mL] | MIC [2, 6] [µg/mL] | MIC [2, 8] [µg/mL] | MIC [2, 9] [µg/mL] | MIC [2, 10] [µg/mL] | also measured
CC[C@H](C)[C@H](N)C(=O)N=[S@@](N)(=O)c1cccc(OC(F)F)c1 [ANASIA-069-2] | 13700 | – | – | – | – | – | – | –
CC[C@H](C)[C@H](N)C(=O)N=[S@](N)(=O)c1cccc(C(F)(F)F)c1 [ANASIA-072-1] | 53100 | – | – | – | – | – | – | –
CC[C@H](C)[C@H](N)C(=O)N=[S@](N)(=O)c1cccc(OC(F)(F)F)c1 [ANASIA-077-1] | 40800 | – | – | – | – | – | – | –
CC[C@H](C)[C@H](N)C(=O)N=[S@](N)(=O)c1ccsc1Cl [ANASIA-078-1] | 16400 | – | – | – | – | – | – | –
CC[C@H](C)[C@H](N)C(=O)N=[S@@](N)(=O)c1ccsc1Cl [ANASIA-078-2] | 599 | – | – | – | – | – | – | –
CC[C@H](C)[C@H](N)C(=O)N=[S@](N)(=O)c1cscc1C [ANASIA-079-1] | 19800 | – | – | – | – | – | – | –
CC[C@H](C)[C@H](N)C(=O)N=[S@@](N)(=O)c1cscc1C.Cl [ANASIA-079-2] | 372 | 64 | – | – | – | – | – | –
CC[C@H](C)[C@H](N)C(=O)N=[S@](N)(=O)c1csc(Cl)c1 [ANASIA-080-1] | 1140 | – | – | – | – | – | – | –
CC[C@H](C)[C@H](N)C(=O)N=[S@@](N)(=O)c1csc(Cl)c1 [ANASIA-080-2] | 41300 | – | – | – | – | – | – | –
CC(C)C[C@H](N)C(=O)N=[S@](N)(=O)c1scc(Cl)c1Cl.Cl [ANASIA-081-1] | – | 2 | > 64 | 32 | 1 | 256 | > 64 | IC50 [3]: 33.9 nM; MIC [2, 7]: 8 µg/mL
CC[C@H](C)[C@H](N)C(=O)N=S(N)(=O)c1csc2ccsc12 (some centres unmarked) [ANASIA-084] | 2820 | – | – | – | – | – | – | –
CC(C)C[C@H](N)C(=O)N=[S@@](N)(=O)c1ccccc1F.Cl [ANASIA-087-1] | – | 11.3 | > 64 | > 64 | 32 | > 64 | > 64 | IC50 [3]: 289 nM; MIC [2, 11]: 64 µg/mL
CC(C)C[C@H](N)C(=O)N=[S@](N)(=O)c1cccc(OC(F)F)c1.Cl [ANASIA-088-1] | – | 4 | > 64 | > 64 | 4 | > 256 | > 64 | IC50 [3]: 75.3 nM; MIC [2, 11]: 64 µg/mL; MIC [2, 7]: 32 µg/mL
CC(C)C[C@H](N)C(=O)N=[S@](N)(=O)c1ccsc1Cl.Cl [ANASIA-092-1] | – | 2 | > 64 | 64 | 2 | 64 | > 64 | IC50 [3]: 48.4 nM; MIC [2, 7]: 11.3 µg/mL
CC(C)C[C@H](N)C(=O)N=S(N)(=O)c1csc2ccsc12 (some centres unmarked) [ANASIA-100] | – | 0.5 (≈ 1.51 µM) | > 64 | 32 (≈ 96.5 µM) | 0.5 (≈ 1.51 µM) | 64 (≈ 193 µM) | > 64 | IC50 [3, 12]: 32.8 nM; MIC [2, 7]: 4 µg/mL (≈ 12.1 µM)
COc1ccsc1[S@@](N)(=O)=NC(=O)[C@@H](N)CC(C)C.Cl [ANASIA-108-1] | – | 8 | > 64 | > 64 | 32 | 64 | 64 | IC50 [3]: 127 nM; MIC [2, 7]: 16 µg/mL
CC[C@H](C)[C@H](N)C(=O)N=[S@](N)(=O)c1ccc2c(c1)OCO2 [ANASIA-115-1] | 4700 | – | – | – | – | – | – | –
CC[C@H](C)[C@H](N)C(=O)N=[S@](N)(=O)c1scc(Br)c1Br [ANASIA-116-1] | 3830 | – | – | – | – | – | – | –
CC[C@H](C)[C@H](N)C(=O)N=[S@@](N)(=O)c1scc(Br)c1Br [ANASIA-116-2] | 950 | – | – | – | – | – | – | –
CC1CCC(N)(C(=O)N=S(N)(=O)c2ccccc2)C1 (centres unmarked) [ANASIA-123] | > 100000 | – | – | – | – | – | – | IC50 [3, 12]: 4870 nM

Source: patent publication US12247004B2, “2-amino-N-(amino-oxo-aryl-lambda6-sulfanylidene)acetamide compounds and their therapeutic use” (Oxford Drug Design Limited, priority 2019, dated 2025)
